According to ChEMBL document CHEMBL5154820 (Eur J Med Chem, 2022):
Converted amounts (≈) assume the structure as drawn.

How the values were obtained:
[1] = Cytotoxicity against HK-2 cells assessed as reduction in cell growth measured after 24 hrs by microplate reader analysis; format: toxicity, cell-based; conditions: human
SiHa [2] = test: Antiproliferation activity against human SiHa cells assessed as reduction in cell growth measured after 48 to 72 hrs by CCK-8 assay; format: functional, cell-based
[3] = Antiproliferation activity against human MS751 cells assessed as reduction in cell growth measured after 48 to 72 hrs by CCK-8 assay; format: functional, cell-based
[4] = MRT in C57 nude mouse at 30 mg/kg, ip measured at 0.083 to 24 hrs by LC/MS/MS analysis; format: ADME, organism-based; conditions: in vivo, time 0.083-24 hrs
HeLa [5] = test: Antiproliferative activity against human HeLa cells assessed as reduction in cell growth measured after 48 to 72 hrs by CCK-8 assay; format: functional, cell-based
HeLa [6] = test: Induction of apoptosis in human HeLa cells assessed as necrotic cells at 0.4 uM measured after 24 hrs by Annexin V-FITC/7-AAD staining based flow cytometric analysis (reference value: 0.56%); format: functional
HeLa [7] = test: Antitumor activity against human HeLa cells xenografted in BABL/c mouse assessed as tumor growth inhibition at 30 mg/kg, ip administered daily for 21 days relative to control; format: functional; conditions: 504 h, time 21 day, read-out: TGI
HeLa [8] = test: Induction of cell cycle arrest in human HeLa cells assessed as accumulation of cells at G2/M phase at 0.2 uM after 24 hrs by propidium iodide staining based flow cytometric analysis (reference value: 20.3%); format: functional
HeLa [9] = test: Antiproliferation activity against human HeLa cells assessed as reduction in cell growth measured after 48 to 72 hrs by CCK-8 assay; format: functional, cell-based
HeLa [10] = test: Inhibition of colony formation in human HeLa cells at 50 nM and treated for every 48 hrs with fresh medium measured after 14 days by crystal violet staining method ( Rvb = 67.3%); format: functional; parameters: scale not given: the % may be the effect or the level left; conditions: time 14 day
[11] = AUC(0 to t) in C57 nude mouse at 30 mg/kg, ip measured at 0.083 to 24 hrs by LC/MS/MS analysis; format: ADME, organism-based; parameters: dose 30 mg/kg, time upper 24 hrs, time lower 0.083 hrs, route ip; conditions: in vivo
[12] = Acute toxicity against ICR mouse assessed as inflammatory cell infiltration in kidney at 1000 mg/kg, ip measured after 14 days by H and E staining method; format: organism-based; conditions: in vivo, 336 h, time 14 day
HeLa [13] = test: Antitumor activity against human HeLa cells xenografted in BABL/c mouse assessed assessed as reduction in tumor volume at 30 mg/kg, ip administered daily for 21 days followed by addition of 3 mg/kg DDP for every 2 days and measured every 3 days ( Rvb = 2336 mm3); format: functional; conditions: time 21 day
[14] = Acute toxicity against ICR mouse assessed as morphological changes in heart at 1000 mg/kg, ip measured after 14 days by H and E staining method; format: organism-based; conditions: in vivo, 336 h, time 14 day
hERG (KCNH2) = hERG (KCNH2) (Homo sapiens, UniProt Q12809); test: Inhibition of human ERG expressed in CHO cells at 40 uM with holding potential of -80 mV by whole cell patch clamp assay relative to control; format: toxicity, cell-based; conditions: CHO cells that express hERG
[15] = biological target: T1, Tubulin beta (Homo sapiens) (UniProt P68371+Q9H4B7+Q13509+P04350+Q3ZCM7+P07437+Q13885+Q9BVA1+Q9BUF5+A6NNZ2); test: Binding affinity to beta-tubulin colchicine binding site in human HeLa cells assessed as decrease of adduct formation by measuring gray value measured at 25 uM incubated for 2 hrs followed by addition of EBI measured after 1.5 hrs by EBI competition based Western blotting analysis; format: cell-based; conditions: time 3.5 hrs
[16] = Aqueous solubility of compound at pH 7.4 in phosphate buffer incubated overnight by HPLC analysis; format: physicochemical
SiHa [17] = test: Antiproliferative activity against human SiHa cells assessed as reduction in cell growth measured after 48 to 72 hrs by CCK-8 assay; format: functional, cell-based
[18] = Antiproliferative activity against human SiHa/DDP cells assessed as reduction in cell growth measured after 48 to 72 hrs by CCK-8 assay; format: functional, cell-based, SiHa/cDDP
HeLa [19] = test: Induction of apoptosis in human HeLa cells assessed as viable cells at 0.2 uM measured after 24 hrs by Annexin V-FITC/7-AAD staining based flow cytometric analysis (reference value: 70.1%); format: functional; conditions: read-out: Activity
[20] = Antiproliferative activity against human HeLa/DDP cells assessed as reduction in cell growth measured after 48 to 72 hrs by CCK-8 assay; format: functional, cell-based
[21] = Octanol-water partition coefficient, logP of the compound incubated overnight by HPLC analysis; format: physicochemical
[22] = biological target: T1, Tubulin beta (Homo sapiens); test: Binding affinity to beta-tubulin colchicine binding site in human HeLa cells assessed as decrease of adduct formation by measuring gray value measured at 100 uM incubated for 2 hrs followed by addition of EBI measured after 1.5 hrs by EBI competition based Western blotting analysis; format: cell-based; conditions: time 3.5 hrs
[23] = Aqueous solubility of compound at pH 7.0 phosphate buffer incubated overnight by HPLC analysis analysis; format: physicochemical
Tubulin (Sus scrofa) = Tubulin (Sus scrofa) (UniProt P02554+P02550); test: Inhibition of pig brain tubulin polymerization at 6 uM by spectrophotometer analysis relative to control; parameters: scale not given: the % may be the effect or the level left; conditions: Sus scrofa domesticus
[24] = Nephrotoxicity in BABL/c mouse assessed as increased urea nitrogen level at 30 mg/kg, ip administered daily for 21 days followed by addition of 3 mg/kg DDP for every 2 days relative to vehicle; format: toxicity, organism-based; conditions: in vivo, 504 h, time 21 day
[25] = Aqueous solubility of compound at pH 2.0 in phosphate buffer incubated overnight by HPLC analysis; format: physicochemical
[26] = Toxicity against BABL/c mouse assessed as morphological changes in lung at 30 to 60 mg/kg, ip administered daily for 21 days by H and E staining method; format: organism-based; conditions: in vivo, 504 h, dose 30-60 mg/kg, time 21 day
HeLa [27] = test: Induction of cell cycle arrest in human HeLa cells assessed as 2N cells at 0.2 uM measured after 24 hrs by propidium iodide staining based flow cytometric analysis analysis ( Rvb = 47.4%); format: functional
HeLa [28] = test: Inhibition of colony formation in human HeLa cells at 20 nM and treated for every 48 hrs with fresh medium measured after 14 days by crystal violet staining method ( Rvb = 67.3%); format: functional; parameters: scale not given: the % may be the effect or the level left; conditions: time 14 day
[29] = Nephrotoxicity in BABL/c mouse assessed as increased creatinine level at 60 mg/kg, ip administered daily for 21 days relative to vehicle; format: toxicity, organism-based; conditions: in vivo, 504 h, time 21 day
HeLa [30] = test: Induction of cell cycle arrest in human HeLa cells assessed as 2N cells at 6 nM measured after 24 hrs by propidium iodide staining based flow cytometric analysis analysis ( Rvb = 41.7%); format: functional
HeLa [31] = test: Induction of apoptosis in human HeLa cells assessed as early apoptotic cells at 6 nM measured after 24 hrs by Annexin V-FITC/7-AAD staining based flow cytometric analysis (reference value: 18.8%); format: functional
HeLa [32] = test: Induction of cell cycle arrest in human HeLa cells assessed as >4N cells at 3 nM measured after 24 hrs by propidium iodide staining based flow cytometric analysis analysis relative to control; format: functional
Bos taurus = species on record: Bos taurus; test: Inhibition of calf brain tubulin polymerization upto 50 uM measured after 40 mins by spectrophotometric analysis; conditions: DDE = dose-dependent effect

Chain of Tubulin (Sus scrofa) (P02550 whole entry, looked up): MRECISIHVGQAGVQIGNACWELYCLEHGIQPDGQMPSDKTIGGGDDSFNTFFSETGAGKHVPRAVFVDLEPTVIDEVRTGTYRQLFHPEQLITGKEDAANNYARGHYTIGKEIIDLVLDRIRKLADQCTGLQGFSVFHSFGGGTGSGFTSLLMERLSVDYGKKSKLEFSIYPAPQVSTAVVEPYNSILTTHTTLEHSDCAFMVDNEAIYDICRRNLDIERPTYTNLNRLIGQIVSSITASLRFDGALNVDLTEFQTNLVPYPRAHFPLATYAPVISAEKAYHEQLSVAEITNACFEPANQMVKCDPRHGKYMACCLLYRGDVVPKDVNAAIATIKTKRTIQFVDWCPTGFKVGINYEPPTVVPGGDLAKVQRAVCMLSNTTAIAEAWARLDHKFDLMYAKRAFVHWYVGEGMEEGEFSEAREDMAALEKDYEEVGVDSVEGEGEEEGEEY
Chain of Tubulin (Sus scrofa) (P02554 whole entry, looked up): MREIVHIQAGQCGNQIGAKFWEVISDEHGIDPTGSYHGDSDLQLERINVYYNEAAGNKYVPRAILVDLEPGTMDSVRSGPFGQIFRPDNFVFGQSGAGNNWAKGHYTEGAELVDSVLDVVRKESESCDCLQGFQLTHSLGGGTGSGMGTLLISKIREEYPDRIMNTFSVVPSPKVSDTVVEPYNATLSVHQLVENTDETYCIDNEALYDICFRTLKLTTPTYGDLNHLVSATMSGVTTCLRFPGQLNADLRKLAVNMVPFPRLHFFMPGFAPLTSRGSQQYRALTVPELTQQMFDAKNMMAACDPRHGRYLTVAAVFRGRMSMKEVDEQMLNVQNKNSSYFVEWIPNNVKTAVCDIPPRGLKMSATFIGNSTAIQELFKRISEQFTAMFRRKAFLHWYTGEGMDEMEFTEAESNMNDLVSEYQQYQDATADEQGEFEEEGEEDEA
Chain of hERG (KCNH2) (Q12809 whole entry): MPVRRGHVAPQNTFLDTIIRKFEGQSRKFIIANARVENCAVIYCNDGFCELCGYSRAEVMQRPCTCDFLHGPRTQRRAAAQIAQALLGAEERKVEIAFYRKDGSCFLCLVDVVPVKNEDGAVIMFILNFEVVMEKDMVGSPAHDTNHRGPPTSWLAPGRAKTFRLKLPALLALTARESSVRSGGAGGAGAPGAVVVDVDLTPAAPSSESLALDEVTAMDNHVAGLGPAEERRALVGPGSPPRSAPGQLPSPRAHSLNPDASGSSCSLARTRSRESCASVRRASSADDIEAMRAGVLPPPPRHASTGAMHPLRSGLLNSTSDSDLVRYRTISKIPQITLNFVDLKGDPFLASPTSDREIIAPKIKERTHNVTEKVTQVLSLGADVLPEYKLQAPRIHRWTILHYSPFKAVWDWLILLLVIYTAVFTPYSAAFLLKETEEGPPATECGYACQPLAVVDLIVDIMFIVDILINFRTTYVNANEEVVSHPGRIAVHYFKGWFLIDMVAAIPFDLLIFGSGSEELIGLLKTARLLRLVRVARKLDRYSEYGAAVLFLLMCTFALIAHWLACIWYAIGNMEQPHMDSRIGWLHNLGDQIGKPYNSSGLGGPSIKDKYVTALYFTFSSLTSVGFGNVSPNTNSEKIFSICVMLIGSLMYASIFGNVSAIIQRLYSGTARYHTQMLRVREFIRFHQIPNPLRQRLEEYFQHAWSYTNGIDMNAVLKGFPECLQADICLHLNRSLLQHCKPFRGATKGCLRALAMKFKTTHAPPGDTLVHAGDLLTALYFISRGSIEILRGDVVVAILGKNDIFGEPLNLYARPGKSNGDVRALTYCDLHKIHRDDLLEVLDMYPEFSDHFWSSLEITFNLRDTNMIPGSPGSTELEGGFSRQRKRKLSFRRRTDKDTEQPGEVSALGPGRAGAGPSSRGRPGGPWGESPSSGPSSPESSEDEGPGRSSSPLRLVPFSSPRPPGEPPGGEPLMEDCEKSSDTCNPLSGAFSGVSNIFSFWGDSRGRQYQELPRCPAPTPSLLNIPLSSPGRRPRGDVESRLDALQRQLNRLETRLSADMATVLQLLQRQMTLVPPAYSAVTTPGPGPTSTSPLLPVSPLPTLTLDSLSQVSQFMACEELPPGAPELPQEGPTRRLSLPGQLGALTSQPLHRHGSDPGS

CCOc1ccc(-c2cncnc2-c2cc(OC)c(OC)c(OC)c2)cc1Cl
IC50 at 24 h [1]: 188 µM
IC50 (SiHa [2]): 0.15 µM
IC50 [3]: 0.11 µM
MRT [4]: 1.77 h
IC50 (HeLa [5]): 0.09 µM
Activity (HeLa [6]): 0.11%
inhibition in vivo at 30 mg/kg (HeLa [7]): 35%
Activity (HeLa [8]): 47.6%
IC50 (HeLa [9]): 0.09 µM
Activity (HeLa [10]): 36.8%
AUC(0-t) [11]: 5610 ng·h/mL
Activity [12]: Non-Toxic
Activity (HeLa [13]): 724 mm3
Activity [14]: Non-Toxic
inhibition at 40 µM (hERG (KCNH2)): 65%
Activity [15]: 1.17
solubility [16]: 17.1 µg/mL (≈ 42.8 µM)
IC50 (SiHa [17]): 0.15 µM
IC50 [18]: 6.28 µM
viability at 0.2 µM (HeLa [19]): 26.4%
IC50 [20]: 7.21 µM
logP [21]: 2.36
Activity [22]: 2
solubility [23]: 8.12 µg/mL (≈ 20.3 µM)
Activity (Tubulin (Sus scrofa)): 54%
Activity [24]: 1.3%
solubility [25]: 31.7 µg/mL (≈ 79 µM)
Activity [26]: Non-Toxic
Activity (HeLa [27]): 0.82%
Activity (HeLa [28]): 51.5%
Activity [29]: 23%

COc1ccc(/C=C\c2cc(OC)c(OC)c(OC)c2)cc1O [COMBRETASTATIN A4]
IC50 at 24 h [1]: 116 µM
IC50 (SiHa [2]): 0.029 µM
IC50 [3]: 0.008 µM
Activity (HeLa [30]): 25.9%
IC50 (HeLa [5]): 0.0042 µM
IC50 (HeLa [9]): 0.0042 µM
Activity (HeLa [31]): 74.2%
Activity (HeLa [32]): 17%
solubility [16]: 4.34 µg/mL (≈ 13.7 µM)
IC50 (SiHa [17]): 0.029 µM
IC50 [18]: 14.4 µM
inhibition (Bos taurus): Dde
IC50 [20]: 10.3 µM
logP [21]: 2.04
solubility [23]: 9.85 µg/mL (≈ 31.1 µM)
solubility [25]: 3.23 µg/mL (≈ 10.2 µM)
